From article PMC5384453, “A multi-functional PEGylated gold(III) compound: potent anti-cancer properties and self-assembly into nanostructures for drug co-delivery” (Chemical Science, 2016)

How the values were obtained:
[1] = system: HeLa; test: In vitro cytotoxicity, MTT assay; format: cell-based, human
Experimental: (§1) In vitro cytotoxicity assays. HeLa, NCI-H460, HCT116, A2780, A2780cis and
(§2) cells), respectively, were seeded in 96-well plates for 24 h. The cells were then treated with a serial concentration of gold(III) complexes and incubated at 37 °C under a 5% CO2 atmosphere for 72 h. For nanostructures of 1, 2 and NC1, they were dissolved in
(§3) cisplatin were dissolved in culture medium-DMSO solution mixture (99:1, v/v).
(§4) After incubation for 72 h, MTT in PBS solution (5 mg/mL, 10 μL) was added to each well. The plates were incubated at 37 °C under a 5% CO2 atmosphere for another 4 h, and the cells were lysed by the addition of SDS solution (10%, w/w) with 0.01 M HCl (100 μL). After incubation in dark at 37 °C overnight, the cell viability after treatment was determined by a microtitre plate reader monitoring at the absorbance at 590 nm,

[2] = system: NCI-H460; test: In vitro cytotoxicity, MTT assay; format: cell-based, human
Experimental: as §1, §2, §3, §4

[3] = system: HCT116; test: In vitro cytotoxicity, MTT assay; format: cell-based, human
Experimental: as §1, §2, §3, §4

[4] = system: A2780; test: In vitro cytotoxicity, MTT assay; format: cell-based, human
Experimental: as §1, §2, §3, §4

[5] = system: A2780cis; test: In vitro cytotoxicity, MTT assay; format: cell-based, human
Experimental: as §1, §2, §3, §4

[6] = system: A2780adr; test: In vitro cytotoxicity, MTT assay; format: cell-based, human
Experimental: as §1, §2, §3, §4

[7] = system: MIHA; test: In vitro cytotoxicity, MTT assay; format: cell-based; conditions: MTT assay, 72 h incubation, read-out: IC50
Experimental: as §1, §2, §3, §4

[8] = system: NCM460; test: In vitro cytotoxicity, MTT assay; format: cell-based, human; conditions: 72 h incubation
Experimental: as §1, §2, §3, §4

[9] = system: CCD-19Lu; test: In vitro cytotoxicity, MTT assay; format: cell-based, human; conditions: 72 h incubation
Experimental: as §1, §2, §3, §4

[10] = system: HCT116 cells; test: Hydrolysis in live cells, UPLC-QTOF-MS of cell lysates; format: in vitro ADME, human; conditions: 2 μM, 24 h
Experimental: Hydrolysis of the gold(III) complexes in live cells was examined by ultra-performance liquid chromatography coupled quadrupole-time-of-flight mass spectrometry (UPLC-QTOF-MS). Colon cancer cells (HCT116) were treated with 1, 2 and 3 (2 μM) for 24 h, harvested and lysed in an acetonitrile–water solution mixture (3 : 1, v/v) prior to UPLC-QTOF-MS analysis. […] Therefore, the peak is attributable to the major metabolite of 1 formed in HCT116 cells. […] This should be attributable to the higher stability of the amide bond versus the ester bond in vitro. […]
which reflected the amount of blue formazan formed. IC50 values were then determined by CompuSyn S6 from three independent measurements.
Study on the release of hydrolyzed product from 1 and 2 in aqueous buffer solutions by ICP-MS. The nanostructures of gold(III) complex was dissolved in PBS solution (pH 7.4; 1 mg/mL) or sodium acetate buffer solution (pH 4.0; 1 mg/mL) and was dialyzed against 1 L of the buffer solution at 37 °C using semipermeable minidialysis tubes (molecular weight cut-off = 1,000 Da; GE Healthcare). At a predetermined time, an aliquot of solution was removed and dissolved in HNO3/HCl solution mixture (9:1, v/v; volume of aliquot: volume of acid mixture = 1:3). The solution mixture was heated at 65 °C with shaking overnight, and the gold content was determined by ICP-MS from three independent aliquots.
Study on the hydrolysis of 1 and 2 in aqueous buffer solutions by 1H NMR. […]
The flow rate was 0.4 mL/min and the injection volume was 2 µL. The UPLC-QTOF-MS chromatograms of 1, 3, 4 and solvent control in acetonitrile were also recorded for the interpretation of UPLC-QTOF-MS chromatograms of the cell lysate. […]
Au1a (2 µM; with 1 vol% DMSO). […] An aliquot of the cell suspension was subjected to Bio-rad protein assay with a microtitre plate reader at the absorbance at 595 nm, using bovine serum albumin as the protein standard. […] The solution mixture was heated at 65 °C with shaking overnight, and the gold content was determined by ICP-MS. […]

COC(=O)c1ccc(C2=C3C=CC(=N3)C(c3ccccc3)=c3ccc4[n]3[Au+][n]3c(ccc32)C(c2ccccc2)=C2C=CC(=N2)C=4c2ccccc2)cc1.[Cl-] [Compound 3, [Au(TPP–COOCH3)]^+]
IC50 ([1]; HeLa, MTT assay, 72 h incubation, read-out: IC50): 820 ± 120 nM
Toxicity toward cancer cells compared to that toward CCD-19Lu cells, HeLa ([1]; IC50 of CCD-19Lu cells / IC50 of HeLa): 0.9
Toxicity toward cancer cells compared to that toward MIHA cells, HeLa ([1]; IC50 of MIHA cells / IC50 of HeLa): 0.9
Toxicity toward cancer cells compared to that toward NCM460 cells, HeLa ([1]; IC50 of NCM460 cells / IC50 of HeLa): 0.2
Toxicity toward cancer cells compared to that toward CCD-19Lu cells, NCI-H460 ([2]; IC50 of CCD-19Lu cells / IC50 of NCI-H460): 6.6
Toxicity toward cancer cells compared to that toward MIHA cells, NCI-H460 ([2]; IC50 of MIHA cells / IC50 of NCI-H460): 7.0
Toxicity toward cancer cells compared to that toward NCM460 cells, NCI-H460 ([2]; IC50 of NCM460 cells / IC50 of NCI-H460): 1.3
IC50 ([2]; NCI-H460, MTT assay, 72 h incubation): 110 ± 10 nM
IC50 ([3]; HCT116, MTT assay, 72 h incubation): 90 ± 10 nM
Toxicity toward cancer cells compared to that toward CCD-19Lu cells, HCT-116 ([3]; IC50 of CCD-19Lu cells / IC50 of HCT-116): 8.1
Toxicity toward cancer cells compared to that toward MIHA cells, HCT-116 ([3]; IC50 of MIHA cells / IC50 of HCT-116): 7.7
Toxicity toward cancer cells compared to that toward NCM460 cells, HCT-116 ([3]; IC50 of NCM460 cells / IC50 of HCT-116): 1.4
IC50 ([4]; A2780, MTT assay, 72 h incubation): 230 ± 20 nM
Toxicity toward cancer cells compared to that toward CCD-19Lu cells, A2780 ([4]; IC50 of CCD-19Lu cells / IC50 of A2780): 3.2
Toxicity toward cancer cells compared to that toward NCM460 cells, A2780 ([4]; IC50 of NCM460 cells / IC50 of A2780): 0.7
IC50 ([5]; A2780cis, MTT assay, 72 h incubation): 190 ± 30 nM
Resistance found in A2780cis ([5]; IC50 of A2780cis cells / IC50 of A2780 cells): 1.0
Toxicity toward cancer cells compared to that toward CCD-19Lu cells, A2780cis ([5]; IC50 of CCD-19Lu cells / IC50 of A2780cis): 3.8
Toxicity toward cancer cells compared to that toward NCM460 cells, A2780cis ([5]; IC50 of NCM460 cells / IC50 of A2780cis): 0.7
IC50 ([6]; A2780adr, MTT assay, 72 h incubation, read-out: IC50): 650 ± 60 nM
Resistance found in A2780adr ([6]; IC50 of A2780adr cells / IC50 of A2780 cells): 3.23
Toxicity toward cancer cells compared to that toward CCD-19Lu cells, A2780adr ([6]; IC50 of CCD-19Lu cells / IC50 of A2780adr): 1.1
Toxicity toward cancer cells compared to that toward MIHA cells, A2780adr ([6]; IC50 of MIHA cells / IC50 of A2780adr): 1.1
Toxicity toward cancer cells compared to that toward NCM460 cells, A2780adr ([6]; IC50 of NCM460 cells / IC50 of A2780adr): 0.2
IC50 [7]: 740 ± 90 nM
IC50 [8]: 130 ± 10 nM
IC50 [9]: 730 ± 40 nM
hydrolysis / release of [Au(TPP–COOH)]+ in cells [10]: hydrolysis of the ester bond was also observed
